Measurements from article PMC7503308, “A Novel Urease Inhibitor of Ruminal Microbiota Screened through Molecular Docking” (International Journal of Molecular Sciences, 2020).
Like-named read-outs stand apart in the source and are kept apart here.

Experiments:
[1] = parameters: method as in PMID 19050709; details: human patients; cited from earlier work
[2] = system: ruminal microbiota; experiment: Ruminal microbial fermentation in vitro (six generations): urea and NH3-N; type: cell-based, rumen fluid of Chinese Holstein dairy cows; details: 100 μM compound, 24 h, p < 0.01
Description: Seven solutions were prepared for the anaerobic media as solution A (3 g/L K2HPO4), solution B (0.6 g/L CaCl2, 3 g/L K2HPO4, 6 g/L NaCl, 0.6 g/L MgSO4·7H2O), solution C (6 g/L K2HPO4), solution D (1.6 g/L CaCl2·2H2O, 6 g/L K2HPO4, 12 g/L NaCl, 2.5 g/L MgSO4·7H2O), trace element solution (300 mg/L H3BO3, 100 mg/L ZnSO4·7H2O, 30 mg/L MnCl2·4H2O, 20 mg/L CoCl2·6H2O, 30 mg/L Na2MoO4·2H2O, 10 mg/L Na2SeO3, 20 mg/L NiCl2, 10 mg/L CuCl2·2H2O, 150 mg/L FeCl2·4H2O), volatile fatty acid (VFA) mixed solution (17 mL acetic acid, 6 mL propionic acid, 4 mL butyric acid, 1 mL n-valeric acid, 1 mL isovaleric acid, and 1 mL isobutyric acid), and hemin solution, prepared by diluting 50 mg of Haemon in NaOH (1 N solution) and made up to 100 mL with distilled water. Each liter of anaerobic media contained 30 mL of autoclaved rumen fluid supernatant, 0.5 g of glucose, 0.5 g of soluble starch, 0.5 g of cellobiose, 0.5 g of maltose, 0.5 g of […], 0.5 g of tripticase, 0.5 g of yeast extract, 8 g of NaHCO3, 0.1 mL of trace elements solution, 15 mL solution A, 15 mL solution B, 0.5 g of cysteine hydrochloride, 10 mL of hemin solution, 3.1 mL of VFA mixed solution, and 1 mg resazurin. The anaerobic urea solution was prepared using an anaerobic glove box, by dissolving 2.5 g of urea in a 50 mL anaerobic diluent. This diluent consisted of 3.8 mL of salt solution C, 3.8 mL of salt solution D, 5 mL of 8% sodium Na2CO3, 1 mL of 0.1% resazurin, 0.5 g of cysteine hydrochloride dissolved in distilled water and made up to 1000 mL and distributed into 50 mL anaerobic bottles. All the anaerobic bottles were sterilized by autoclave. Prior to the inoculation, fresh frozen rumen fluid samples, pretreated as described previously, were removed from the freezer, thawed, homogenized, and used immediately. […] Chromatographic gradients were referenced to the paper.

[3] = system: H. pylori urease; parameters: method as in PMID 23567958; details: cited from earlier work
[4] = system: ruminal microbiota; details: cited from earlier work
[5] = system: Caco-2 cells; experiment: CCK8 colorimetric cytotoxicity assay; type: cell-based; details: concentration below 100 μM, 24 h, p > 0.05
Description: A standard CCK8 colorimetric assay was employed for the evaluation of cytotoxic activity of compound 6238-0047 using 96-well flat bottomed microplates. Dulbecco’s Modified Eagle Medium (GIBCO) with 10% FBS (fetal bovine serum, FBS, Gibco) and 1% NEAA was used for the culturing of Caco-2 cells (ATCC, Manassas, VA, USA), and the medium was supplemented with 100 μg/mL of streptomycin and 100 IU/mL of penicillin. The medium was kept in 5% CO2 and incubated at 37 °C. The exponentially grown cells were harvested, counted using a hemocytometer and diluted with the medium. The cell culture was diluted to a density of 1 × 10^5 cells/mL and transferred into a 96-well plate with 135 μL or […]. The medium was incubated for 24 h for cell attachment. Following this, 15 μL of compounds with different final concentrations of 1, 10, 25, 50, and 100 μM in the experimental group and fresh medium as a control group, were added to a plate with five replicates for each. After 24 h of incubation at 37 °C and kept in 5% CO2, 15 μL of CCK8 was added to each well and after 2 h the absorbance was measured at 450 nm using a microplate reader. The formula for calculating the relative cell viability was as follows:Relative cell viability (%) = absorbance of experimental group/absorbance of control group × 100%

[6] = system: ruminal microbial urease; experiment: Urease inhibition assay (Berthelot alkaline phenol-hypochlorite method); type: biochemical, rumen bacteria of Chinese Holstein dairy cows; details: ruminal microbial urease, 37 °C, 30 min, pH 7.5
Description: Rumen fluid samples were collected from five Chinese Holstein dairy cows with permanent rumen fistula 3 h after feeding a total mixed ration in the morning. All the operations were conducted in accordance with the protocol approved by the Animal Care and Use Committee for Livestock of the Institute of Animal Sciences, Chinese Academy of Agricultural Sciences (Permit Number: IAS2019-14, Permit Date: 22-03-2019). All rumen fluid samples were filtered by a six layer sterilized medical gauze and mixed in a sterilized beaker before being evenly distributed into different 50 mL tubes and stored in liquid nitrogen. The deforested samples were centrifuged at 12,000× g for 10 min at 4 °C, then the supernatant was removed from the tube. The remaining sediments were resuspended in a HEPES buffer solution (pH 7.5, 50 mM) and then centrifuged at 12,000× g for 10 min at 4 °C. The supernatant was discarded and the remaining rumen bacteria were collected and stored at −80 °C for later urease extraction. All the sample handing processes were conducted on an ice bath. […]
In vitro urease inhibition screening assays were conducted to further narrow the virtual screened compounds for further IC50 determination and kinetic characterization. […] The ammonia that was produced was measured using 50 μL of a phenol reagent containing 10.0 g/L phenol and 50 mg/L of sodium nitroprusside, and 50 μL of alkali reagent containing 5 g/L sodium hydroxide and 8.4 mL/L of sodium hypochlorite solution, at 37 °C for 30 min. The absorbance of each well was measured at 625 nm by a micro plate spectrophotometer (Thermo Scientific Varioskan Flash G-282, Thermo Scientific, Waltham, MA, USA). The endogenous nitrogen (blank) was measured by adding a 70 μL HEPES buffer (pH 7.5, 50 mM) containing no urea and 20 μL methanol solution in the first 30 min of the reaction mixture. The 100% initial activity was determined by adding a 15 μL methanol solution in the first 30 min of the reaction mixture. […]

[7] = system: jack bean urease; parameters: method as in PMID 17418881; details: cited from earlier work
[8] = system: rumen microbiota; parameters: method as in PMID 10682821; details: cows with permanent rumen fistula, cited from earlier work

Compound: CC(=O)NO [AHA, acetohydroxamic acid, reference compound]
- Patients with dermatological, neurological or hematological issues necessitating discontinuation of therapy [1]: more than 20%
- Amount of urea degradation vs control group ([2]; 16.65 mM urea): significantly lowered the amount of urea degradation
- NH3-N concentration / production vs control group [2]: significantly lower than the control group
- IC50 [3]: 18.2 µM
- AHA degradation [4]: 100%
- Relative cell viability of Caco-2 cell culture [5]: no significant influence
- IC50 [6]: 158 µM
- IC50 [7]: 60 µM

Compound: CCCCNP(N)(N)=S [NBPT, N-(n-butyl) thiophosphoric triamide]
- Ruminal ammonia nitrogen production vs control group ([8]; fifteenth day of treatment): tended to approach the control group
- Ruminal ammonia nitrogen production vs control group ([8]; second day of treatment): lower than that of the control group
